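96-well plates; 48 h exposure; 5 concentrations. Endpoints by linear interpolation between flanking doses. Not reached: highest tested concentration assigned. The concentration for 50% growth inhibition is given as GI50. TGI is the concentration that stops growth completely.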
Key:
Experiment in all cases: NCI tumour cell line growth inhibition, 48 h; in the data active = GI50 below about 0.43 µM; inactive = the rest
HOP-92 NSCLC = system: HOP-92 NSCLC
HOP-62 NSCLC = system: HOP-62 NSCLC
NCI-H460 lung = system: NCI-H460 lung
UACC-62 melanoma = system: UACC-62 melanoma
MDA-MB-435 = system: MDA-MB-435
U251 CNS = system: U251 CNS
HCT-116 colon = system: HCT-116 colon
RPMI-8226 leukemia = system: RPMI-8226 leukemia
SN12C renal = system: SN12C renal
786-0 renal = system: 786-0 renal
COLO 205 colon = system: COLO 205 colon
SW-620 colon = system: SW-620 colon
MCF7 breast = system: MCF7 breast
CAKI-1 renal = system: CAKI-1 renal
SK-OV-3 ovarian = system: SK-OV-3 ovarian
SNB-19 CNS = system: SNB-19 CNS
LOX IMVI melanoma = system: LOX IMVI melanoma
UO-31 renal = system: UO-31 renal
OVCAR-4 ovarian = system: OVCAR-4 ovarian
NCI/ADR-RES ovarian = system: NCI/ADR-RES ovarian
MDA-MB-231 breast = system: MDA-MB-231 breast
PC-3 prostate = system: PC-3 prostate
SR leukemia = system: SR leukemia
SF-295 CNS = system: SF-295 CNS
SK-MEL-28 melanoma = system: SK-MEL-28 melanoma
SNB-75 CNS = system: SNB-75 CNS
HS 578T breast = system: HS 578T breast
HCC-2998 colon = system: HCC-2998 colon
ACHN renal = system: ACHN renal
OVCAR-3 ovarian = system: OVCAR-3 ovarian
NCI-H23 lung = system: NCI-H23 lung
OVCAR-8 ovarian = system: OVCAR-8 ovarian
T-47D breast = system: T-47D breast
CCRF-CEM leukemia = system: CCRF-CEM leukemia
UACC-257 melanoma = system: UACC-257 melanoma
SK-MEL-5 melanoma = system: SK-MEL-5 melanoma
RXF 393 renal = system: RXF 393 renal
SK-MEL-2 melanoma = system: SK-MEL-2 melanoma
MDA-N = system: MDA-N
KM12 colon = system: KM12 colon
SF-268 CNS = system: SF-268 CNS
K-562 leukemia = system: K-562 leukemia
EKVX NSCLC = system: EKVX NSCLC
A549 NSCLC = system: A549 NSCLC
M14 melanoma = system: M14 melanoma
HCT-15 colon = system: HCT-15 colon
HL-60(TB) leukemia = system: HL-60(TB) leukemia
NCI-H226 lung = system: NCI-H226 lung
OVCAR-5 ovarian = system: OVCAR-5 ovarian
DU-145 prostate = system: DU-145 prostate
MOLT-4 leukemia = system: MOLT-4 leukemia
TK-10 renal = system: TK-10 renal
IGROV1 ovarian = system: IGROV1 ovarian
SF-539 CNS = system: SF-539 CNS
NCI-H522 lung = system: NCI-H522 lung

CN1C(=O)C(CCO)(C(C)(C)C)c2ccccc21 (stereo unspecified)
> 100 µM: TGI (HOP-92 NSCLC) | TGI (HOP-62 NSCLC) | TGI (NCI-H460 lung) | TGI (UACC-62 melanoma) | TGI (MDA-MB-435) | TGI (U251 CNS) | TGI (HCT-116 colon) | TGI (RPMI-8226 leukemia) | TGI (SN12C renal) | TGI (786-0 renal) | TGI (COLO 205 colon) | TGI (SW-620 colon) | TGI (MCF7 breast) | TGI (CAKI-1 renal) | TGI (SK-OV-3 ovarian) | TGI (SNB-19 CNS) | TGI (LOX IMVI melanoma) | TGI (UO-31 renal) | TGI (OVCAR-4 ovarian) | TGI (NCI/ADR-RES ovarian) | TGI (MDA-MB-231 breast) | TGI (PC-3 prostate) | TGI (SR leukemia) | TGI (SF-295 CNS) | TGI (SK-MEL-28 melanoma) | TGI (SNB-75 CNS) | TGI (HS 578T breast) | TGI (HCC-2998 colon) | TGI (ACHN renal) | TGI (OVCAR-3 ovarian) | TGI (NCI-H23 lung) | TGI (OVCAR-8 ovarian) | TGI (T-47D breast) | TGI (CCRF-CEM leukemia) | TGI (UACC-257 melanoma) | TGI (SK-MEL-5 melanoma) | TGI (RXF 393 renal) | TGI (SK-MEL-2 melanoma) | TGI (MDA-N) | TGI (KM12 colon) | TGI (SF-268 CNS) | TGI (K-562 leukemia) | TGI (EKVX NSCLC) | TGI (A549 NSCLC) | TGI (M14 melanoma) | TGI (HCT-15 colon) | TGI (HL-60(TB) leukemia) | TGI (NCI-H226 lung) | TGI (OVCAR-5 ovarian) | TGI (DU-145 prostate) | TGI (MOLT-4 leukemia)

COc1ccc2c3c([nH]c2c1)-c1nc2ccccc2c(=O)n1CC3
> 25 µM: TGI (HOP-62 NSCLC) | TGI (NCI-H460 lung) | TGI (MDA-MB-435) | TGI (U251 CNS) | TGI (HCT-116 colon) | TGI (RPMI-8226 leukemia) | TGI (SN12C renal) | TGI (786-0 renal) | TGI (TK-10 renal) | TGI (COLO 205 colon) | TGI (SW-620 colon) | TGI (MCF7 breast) | TGI (SK-OV-3 ovarian) | TGI (SNB-19 CNS) | TGI (UO-31 renal) | TGI (OVCAR-4 ovarian) | TGI (NCI/ADR-RES ovarian) | TGI (MDA-MB-231 breast) | TGI (PC-3 prostate) | TGI (SR leukemia) | TGI (SF-295 CNS) | TGI (IGROV1 ovarian) | TGI (SK-MEL-28 melanoma) | TGI (SNB-75 CNS) | TGI (HCC-2998 colon) | TGI (ACHN renal) | TGI (SF-539 CNS) | TGI (OVCAR-8 ovarian) | TGI (T-47D breast) | TGI (CCRF-CEM leukemia) | TGI (UACC-257 melanoma) | TGI (SK-MEL-5 melanoma) | TGI (MDA-N) | TGI (KM12 colon) | TGI (SF-268 CNS) | TGI (K-562 leukemia) | TGI (EKVX NSCLC) | TGI (NCI-H522 lung) | TGI (A549 NSCLC) | TGI (M14 melanoma) | TGI (HCT-15 colon) | TGI (HL-60(TB) leukemia) | TGI (OVCAR-5 ovarian) | TGI (MOLT-4 leukemia)
10.6 µM: TGI (HS 578T breast)
inactive: GI50 (NCI-H460 lung) 1.38 µM | GI50 (OVCAR-4 ovarian) > 25 µM | GI50 (HS 578T breast) 1.59 µM | GI50 (CCRF-CEM leukemia) > 25 µM | GI50 (A549 NSCLC) 0.754 µM
